One block for each compound: values may come before it.
How the values were obtained:
[1] = tested on: log phase Staphylococcus aureus; test: Chequerboard analysis of HT00800059 with HT230 or HT281 against log phase Staphylococcus aureus; type: cell-based, Staphylococcus aureus (Oxford); settings: for optical density reading at 405 nm: HT00800059 μg/ml: 1024,512,256,128,64,32,16,0, 24 hours; for MIC: Staphylococcus aureus, summary list, read-out: alone MIC
Procedure: (§1) Staphylococcus aureus (Oxford); Gram positive; Reference strain.
(§2) Log phase growth of methicilin sensitive Staphylococcus aureus (MSSA) was carried out as follows: • Bacteria were grown in 10 ml of nutrient broth (No. 2, (Oxoid)) overnight at 37° C. with continuous shaking at 120 rpm. The overnight cultures were diluted 1000× with iso-sensitest broth. The cultures were incubated at 37° C. with shaking for 1-2 hours to reach log CFU 6. Viability of the bacteria was estimated by colony forming unit (CFU) counts. From serial 10-fold dilutions of the experimental cultures, 100 μl samples were added to triplicate plates of nutrient agar plates (Oxoid) or blood agar plates (Oxoid). CFUs were counted after incubation of the plates at 37° C. for 24 hours.
(§3) Bacterial cultures: 10 μl of overnight cultures was added to 10 ml of fresh iso-sensitest broth to make the inoculation to 10^6 CFU/ml. 290 μl of the cell suspension was added to each well of the 96 well plate, which was incubated at 37° C. for 24 hours. 300 μl of iso-sensitest broth without bacterial cells were added to wells of the plate as a no bacterial control.
(§4) MIC determination: The optical density of the bacterial cells was read at 405 nm using a plate reader (Bio TEK). The MIC concentration was determined as the lowest concentration of drug which inhibits the bacterial growth.
HT230 was dissolved in DMSO to the stock concentration of 10 mg/ml.
HT281 was dissolved in DMSO to the stock concentration of 10 mg/ml.
(§5) HT00800059 was dissolved in H2O to the stock solution 30.07 mg/ml.
HT230 or HT281 (10 mg/ml) was firstly diluted to 0.96 mg/ml, then a serial of 2 fold dilution was carried out.
This was followed by the addition of 280 μl of log phase culture at 10^6 CFU/ml to make the final concentrations of each drug as shown.
In the above table, values in bold text are for HT00800059. Values in plain text are for HT230 or HT281. The numbers shown in each well are μg/ml.
Incubation of the compounds with the bacterial suspension was carried out for 24 hours. The kill effects of the drug combination were measured by optical density reading at 405 nm with a plate reader (Bio TEK).
(§6) The fractional inhibitory concentration (FIC) index was carried out as follows: (MIC of drug A, tested in combination)/(MIC of drug A, tested alone)+(MIC of drug B, tested in combination)/(MIC of drug B, tested alone). The interaction was defined as synergistic if the FIC index was <1, additive if the FIC index was =1 and antagonistic if the FIC index was >1.

[2] = tested on: clinically latent microorganisms; test: Screening for ability to kill clinically latent microorganisms (method of WO2000028074); type: cell-based; settings: observed by the Applicant
From the text: International Patent Application, Publication Number WO2000028074 describes a method of screening compounds to determine their ability to kill clinically latent microorganisms. […] This observation has necessitated the development of novel antimicrobials which may be used to kill clinically latent microorganisms.
By way of example, WO2000028074 describes a suitable method of screening compounds to determine their ability to kill clinically latent microorganisms. A typical method may include the following steps: • (1) growing a bacterial culture to stationery phase; • (2) treating the stationery phase culture with one or more antimicrobial agents at a concentration and or time sufficient to kill growing bacteria, thereby selecting a phenotypically resistant sub-population; • (3) incubating a sample of the phenotypically resistant subpopulation with one or more test compounds or agents; and • (4) assessing any antimicrobial effects against the phenotypically resistant subpopulation.

[3] = tested on: log phase Staphylococcus aureus; test: Chequerboard analysis of HT00800059 and HT61 against log phase Staphylococcus aureus; type: cell-based, Staphylococcus aureus (Oxford)
Procedure: as §1, §2, §3, §4
(§7) HT61 was dissolved in DMSO to the stock concentration of 10 mg/ml.
as §5
The drugs were first diluted as follows: • 28.8 μl of HT61 at 10 mg/ml was added into 271.2 μl of H2O followed by diluting 2 fold for 6 times.
Both drugs were mixed as following pattern: 10 μl of HT00800059 from each dilution was added into the wells of a 96 well plate from top to bottom and 10 μl of HT61 from each dilution was added to the same 96 well plate from left to right. After addition of 280 μl log phase cell suspension, the final concentrations of drugs for each well in the 96 well plate are shown in the table below.
Incubation of the compounds with the bacterial suspension was carried out for 24 hours. The kill effect of the drug combination and signal drug MIC was measured by optical density reading at 405 nm with a plate reader (Bio TEK). The MIC concentration was determined as the lowest concentration of drug which inhibits the bacterial growth.
as §6

[4] = tested on: stationary phase Staphylococcus aureus; test: In vitro efficacy test against stationary phase Staphylococcus aureus (CFU counts); type: cell-based, Staphylococcus aureus (Oxford); settings: CFU counts over 8 hours
Procedure: as §1
Stationary phase growth of methicilin sensitive Staphylococcus aureus (MSSA) was carried out as follows:
Subculture of the bacterial strains on agar plates: Overnight S. aureus bacterial cultures were stored at −70° C. with 20% glycerol (cryoprotectant). A loopful of the frozen cells was streaked on a blood agar plate which was incubated at 37° C. overnight (or longer) as culture plate A. A single colony of each strain from the culture plate A was streaked on the blood agar plate which was incubated at 37° C. overnight (or longer) as culture plate B. The culture plate B was stored at 4° C. for a week and served as the initial inoculation plate.
Bacterial growth in broth culture: A single colony from culture plate B was inoculated in 10 ml of nutrient broth (No. 2, (Oxoid)), which was incubated overnight at 37° C. with continuous shaking at 120 rpm. 200 μl of the overnight culture was added into a 500 ml bottle containing 100 ml of nutrient broth. The 100 ml culture was incubated at 37° C. with continuous shaking for 6 to 7 days. Viability of the cultures is estimated by colony forming unit (CFU) counts at 2 hour intervals for the first 24 hours and 12 to 24 hours afterwards.
Colony Forming Unit (CFU) counts were performed as follows: From serial 10-fold dilutions of the cultures, 100 μl samples were added to one third of blood agar plates (Oxoid) in triplicate. CFUs were counted using an aCoLyte colony counter (Synbiosis) after incubation of the plates at 37° C. for 24 hours or longer.
7 day old stationary phase cultures were used. The stationary phase cultures were diluted to obtain CFU counts in the cell suspension of 10^6 to 10^7 CFU/ml. The cell suspension was used to test drug sensitivity.
as §7
HT00800059 was dissolved in H2O to the stock solution 10 mg/ml
The drugs were first diluted as follows: • 7.2 μl of HT61 at 10 mg/ml was added into 292.8 μl of H2O followed by diluting 2 fold, 3 times. • 57.6 μl of HT00800059 at 10 mg/ml was added into 242.4 μl of H2O followed by diluting 2 fold, 2 times. • 10 μl of HT00800059 from each dilution was added into the wells of a 96 well plate followed by the addition of 290 μl of bacterial cell suspension to make the final concentrations of HT00800059 at 64, 32 and 0 μg/ml. • […]
In combination of two drugs: 10 μl of HT61 from each dilution was added into the wells of a 96 well plate followed by the addition of 10 μl of HT00800059 from each dilution. […]

Compound: CC(=O)NC[C@H]1CN(c2ccc(N3CCOCC3)c(F)c2)C(=O)O1 [linezolid]
activity against clinically latent microorganisms [2]: little or no activity

Compound: CC[C@H]1OC(=O)[C@H](C)[C@@H](O[C@H]2C[C@@](C)(OC)[C@@H](O)[C@H](C)O2)[C@H](C)[C@@H](O[C@@H]2O[C@H](C)C[C@H](N(C)C)[C@H]2O)[C@](C)(O)C[C@@H](C)CN(C)[C@H](C)[C@@H](O)[C@]1(C)O [azithromycin]
activity against clinically latent microorganisms [2]: little or no activity

More lines, main results first:

MIC after combination ([1]; HT230/HT00800059 chequerboard): 1 µg/mL | MIC before combination ([1]; HT230/HT00800059 chequerboard): 4 µg/mL | MIC [1]: 4 µg/mL | HT230 MIC in combination ([1]; with HT00800059 at 128 μg/ml): 4 µg/mL | HT230 MIC in combination ([1]; with HT00800059 at 256 μg/ml): 1 µg/mL
Compound: Cc1cc(N2CCC(Cc3ccccc3)C2)c2cc(Oc3ccccc3)ccc2n1 (stereo not shown) [HT230, 4-(3-benzylpyrrolidin-1-yl)-2-methyl-6-phenoxyquinoline]
optical density reading at 405 nm ([1]; HT230 0.03125 μg/ml): 1.237 | optical density reading at 405 nm ([1]; HT230 0.0625 μg/ml): 1.312 | optical density reading at 405 nm ([1]; HT230 0.125 μg/ml): 1.317 | optical density reading at 405 nm ([1]; HT230 0.25 μg/ml): 1.401 | optical density reading at 405 nm ([1]; HT230 0.5 μg/ml): 1.135 | optical density reading at 405 nm ([1]; HT230 1 μg/ml): 1.160 | optical density reading at 405 nm ([1]; HT230 2 μg/ml): 1.190 | optical density reading at 405 nm ([1]; HT230 4 μg/ml): 0.365 | optical density reading at 405 nm ([1]; HT230 8 μg/ml): 0.363 | optical density reading at 405 nm ([1]; HT230 16 μg/ml): 0.357 | optical density reading at 405 nm ([1]; HT230 32 μg/ml): 0.406

MIC after combination ([1]; HT281/HT00800059 chequerboard): 4 µg/mL | MIC before combination ([1]; HT281/HT00800059 chequerboard): 8 µg/mL | MIC [1]: 8 µg/mL
Compound: Cc1cc(N2CCC(Cc3ccccc3)C2)c2cc(NC(=O)c3ccccc3)ccc2n1 (stereo not shown) [HT281, N-[4-(3-benzylpyrrolidin-1-yl)-2-methylquinolin-6-yl]benzamide]
optical density reading at 405 nm ([1]; HT281 0.125 μg/ml): 1.334 | optical density reading at 405 nm ([1]; HT281 0.25 μg/ml): 1.281 | optical density reading at 405 nm ([1]; HT281 0.5 μg/ml): 1.378 | optical density reading at 405 nm ([1]; HT281 0.625 μg/ml): 1.256 | optical density reading at 405 nm ([1]; HT281 1 μg/ml): 1.263 | optical density reading at 405 nm ([1]; HT281 2 μg/ml): 1.157 | optical density reading at 405 nm ([1]; HT281 4 μg/ml): 1.080 | optical density reading at 405 nm ([1]; HT281 8 μg/ml): 0.361 | optical density reading at 405 nm ([1]; HT281 16 μg/ml): 0.364 | optical density reading at 405 nm ([1]; HT281 32 μg/ml): 0.396 | optical density reading at 405 nm ([1]; HT281 64 μg/ml): 0.558

MIC ([3]; Staphylococcus aureus, drug alone, Plate 1, read-out: MIC): 8 µg/mL | MIC ([3]; Staphylococcus aureus, read-out: alone MIC): 16 µg/mL | MIC ([3]; Staphylococcus aureus, with HT00800059 128 μg/ml, Plate 1, read-out: MIC of HT61 + HT00800059): 4 µg/mL | MIC ([3]; drug alone, Plate 2): 8 µg/mL | MIC of HT61 + HT00800059 ([3]; with HT00800059 128 μg/ml, Plate 2): 4 µg/mL | HT61 MIC in combination ([3]; with HT00800059 at 128 μg/ml): 8 µg/mL
Compound: Cc1nc2ccc(Oc3ccccc3)cc2c2c1CCN2CCc1ccccc1 [HT61, 4-methyl-1-(2-phenylethyl)-8-phenoxy-2,3-dihydro-1H-pyrrolo[3,2-c]-quinoline]
activity against stationary phase S. aureus ([4]; 8 μg/ml): low activity | activity against stationary phase S. aureus ([4]; 4 and 2 μg/ml): no observed activity
